Article PMC12291913 (Antibiotics, 2025)
Converted amounts (≈) assume the structure as drawn. “And” between values parts separate entries of the source, which are not always exact repeats. Equal entries are not always repeated. Where two headings read alike, the source gives them in different places.

Key:
[1] = test system: M. avium clinical isolate Koav 20 (WT); experiment: microbe, parasite or virus in culture; assay type: cell-based; settings: Koav 20 (K 20), WT; for MIC: Mycobacterium avium
[2] = test system: M. avium clinical isolates; assay type: cell-based, M. avium subsp. hominissuis; settings: for range of mean FICIms: over isolates, WQ-3810 and MXF together
[3] = test system: M. avium clinical isolate Koav 15 (WT); experiment: microbe, parasite or virus in culture; assay type: cell-based; settings: Koav 15 (K 15), WT
[4] = test system: M. avium clinical isolates; assay type: cell-based, M. avium subsp. hominissuis
[5] = test system: M. avium clinical isolate Koav 1 (WT); experiment: microbe, parasite or virus in culture; assay type: cell-based; settings: Mycobacterium avium
[6] = test system: M. avium clinical isolate Koav 11 (GyrA Asp95Tyr); assay type: cell-based, M. avium subsp. hominissuis
[7] = test system: M. avium clinical isolate Koav 3 (GyrA Asp95Gly); assay type: cell-based, M. avium subsp. hominissuis
[8] = test system: M. avium clinical isolate Koav 21 (WT); experiment: microbe, parasite or virus in culture; assay type: cell-based; settings: Koav 21 (K 21), WT; for MIC: Mycobacterium avium
[9] = test system: M. avium clinical isolate Koav 13 (GyrA Asp95Gly); assay type: cell-based, M. avium subsp. hominissuis
[10] = test system: M. avium clinical isolate Koav 1 (WT); experiment: microbe, parasite or virus in culture; assay type: cell-based; settings: Koav 1 (K 1), WT; for MIC: Mycobacterium avium
[11] = test system: M. avium clinical isolate Koav 13 (GyrA Asp95Gly); assay type: cell-based, M. avium subsp. hominissuis; remark: listed apart in the source
[12] = test system: M. avium clinical isolate Koav 3 (GyrA Asp95Gly); assay type: cell-based, M. avium subsp. hominissuis; remark: listed apart in the source
[13] = test system: M. avium clinical isolate Koav 11 (GyrA Asp95Tyr); assay type: cell-based, M. avium subsp. hominissuis; remark: listed apart in the source
[14] = test system: M. avium clinical isolate Koav 2 (WT); experiment: microbe, parasite or virus in culture; assay type: cell-based; settings: Mycobacterium avium, drug alone, day 14
[15] = test system: M. avium clinical isolate Koav 25 (WT); experiment: microbe, parasite or virus in culture; assay type: cell-based; settings: Mycobacterium avium
[16] = test system: M. avium clinical isolate Koav 15 (WT); experiment: microbe, parasite or virus in culture; assay type: cell-based; settings: Mycobacterium avium
[17] = test system: M. avium clinical isolate Koav 2 (WT); experiment: microbe, parasite or virus in culture; assay type: cell-based; settings: Koav 2 (K 2), WT; for MIC: Mycobacterium avium
[18] = test system: M. avium clinical isolate Koav 19 (WT); experiment: microbe, parasite or virus in culture; assay type: cell-based; settings: Koav 19 (K 19), WT
[19] = test system: M. avium clinical isolate Koav 21 (WT); experiment: microbe, parasite or virus in culture; assay type: cell-based; settings: Mycobacterium avium
[20] = test system: M. avium clinical isolate Koav 25 (WT); experiment: microbe, parasite or virus in culture; assay type: cell-based; settings: Koav 25 (K 25), WT; for MIC: Mycobacterium avium
[21] = test system: M. avium clinical isolate Koav 19 (WT); experiment: microbe, parasite or virus in culture; assay type: cell-based; settings: Mycobacterium avium
[22] = test system: M. avium clinical isolate Cl-A-2 (GyrA Asp95Tyr); assay type: cell-based, M. avium subsp. hominissuis
[23] = test system: M. avium clinical isolate Koav 20 (WT); experiment: microbe, parasite or virus in culture; assay type: cell-based; settings: Mycobacterium avium
[24] = checkerboard (with 1 µg/ml INH)
[25] = checkerboard, single replicates
[26] = checkerboard (with 1 µg/ml INH), read-out: MIC of FQ with INH
[27] = checkerboard, single replicates, read-out: MIC of drug alone
[28] = Mycobacterium avium, checkerboard, single replicates, read-out: MIC of drug alone
[29] = FQ-resistant isolates, MIC assay
[30] = drug alone, day 14, read-out: MIC
[31] = checkerboard (S2: with 1 µg/ml EMB), read-out: MIC of FQ with EMB

With `Cc1c(N2CC(N(C)C)C2)c(F)cc2c(=O)c(C(=O)O)cn(-c3nc(N)c(F)cc3F)c12` [WQ-3810] the “mean FICIm” value ([1]; FQ with EMB) was 0.66, the “mean FICIm” value ([1]; FQ with INH) was 0.25 and the FICIm ([1]; FQ+EMB, single replicates) was 0.625 and 0.75. For the same compound, the FICIm ([1]; FQ+INH, single replicates) was 0.25, the “MIC of FQ with INH” value [1, 24] was 0.0625 µg/mL and the “MIC of drug alone” value [1, 25] was 0.5 µg/mL. The MIC [1, 26] was 0.0312 µg/mL, the MIC [1, 27] was 0.25 µg/mL and the interaction ([2]; in combination with EMB, mean FICIm between 0.5 and 1 additive) was “additive”. The interaction ([2]; in combination with INH, FICIm ≤ 0.5 regarded as synergistic) was “synergistic”, the “range of mean FICIms” value ([2]; with EMB) was 0.41 to 0.91 and the “range of mean FICIms” value ([2]; with INH) was 0.19 to 0.71. For the same compound, the “mean FICIm” value ([3]; FQ with EMB) was 0.71, the “mean FICIm” value ([3]; FQ with INH) was 0.33 and the FICIm ([3]; FQ+EMB, single replicates) was 0.75 and 0.625. For the same compound, the FICIm ([3]; FQ+INH, single replicates) was 0.25 and 0.5 and 0.2812, the MIC [3, 28] was 1 µg/mL and the MIC range [4] was 4 to 8 µg/mL. For the same compound, the “higher antimicrobial activity than CIP” value [4, 29] was 4 to 8 fold, the “higher antimicrobial activity than LVX” value [4, 29] was 2 to 16 fold and the “higher antimicrobial activity than MXF” value [4, 29] was 2 to 4 fold. For the same compound, the MIC range ([4]; WT isolates) was 0.125 to 1 µg/mL, the MIC [5, 30] was 0.125 µg/mL (≈ 0.279 µM) and the MIC ([5]; read-out: MIC with 1 µg/mL EMB) was 0.01 µg/mL (≈ 0.0224 µM). The MIC ([5]; read-out: MIC with 1 µg/mL INH) was 0.03 µg/mL (≈ 0.0671 µM), the “MIC of FQ with EMB” value [6] was 2 µg/mL and the “MIC of FQ with INH” value [6] was 1 µg/mL and 0.5 µg/mL. The “MIC of drug alone” value [6] was 4 µg/mL, the “mean FICIm” value [6] was 0.46 and 0.83 and the MIC [7] was 4 µg/mL (≈ 8.94 µM). For the same compound, the “MIC with 1 µg/mL EMB” value [7] was 4 (×1) µg/mL, the “MIC with 1 µg/mL INH” value [7] was 2 (×0.5) µg/mL and the “mean FICIm” value ([8]; FQ with EMB) was 0.75. The “mean FICIm” value ([8]; FQ with INH) was 0.41, the FICIm ([8]; FQ+EMB, single replicates) was 0.75 and the FICIm ([8]; FQ+INH, single replicates) was 0.375 and 0.5312. For the same compound, the “MIC of FQ with INH” value [8, 24] was 1 µg/mL, the MIC [8, 31] was 0.5 µg/mL and the MIC [8, 26] was 0.5 µg/mL. For the same compound, the MIC [8, 27] was 2 µg/mL, the “MIC of FQ with EMB” value [9] was 4 µg/mL and 2 µg/mL and the “MIC of drug alone” value [9] was 8 µg/mL and 4 µg/mL. For the same compound, the “mean FICIm” value ([10]; FQ with EMB) was 0.62, the “mean FICIm” value ([10]; FQ with INH) was 0.45 and the FICIm ([10]; FQ+EMB, single replicates) was 0.625 and 0.5 and 0.75. The FICIm ([10]; FQ+INH, single replicates) was 0.5 and 0.375, the “MIC of drug alone” value [10, 25] was 0.25 µg/mL and the MIC [10, 26] was 0.0312 µg/mL. For the same compound, the MIC [10, 27] was 0.125 µg/mL, the MIC [11] was 8 µg/mL (≈ 17.9 µM) and the “MIC with 1 µg/mL EMB” value [11] was 4 (×0.5) µg/mL. For the same compound, the “MIC with 1 µg/mL INH” value [11] was 4 (×0.5) µg/mL, the FICIm [12] was 0.75 and the “MIC of FQ with EMB” value [12] was 1 µg/mL and 2 µg/mL. The “MIC of FQ with INH” value [12] was 1 µg/mL and 2 µg/mL, the “MIC of drug alone” value [12] was 4 µg/mL and the “mean FICIm” value [12] was 0.71 and 0.75. For the same compound, the MIC [13] was 4 µg/mL (≈ 8.94 µM), the “MIC with 1 µg/mL EMB” value [13] was 4 (×1) µg/mL and the “MIC with 1 µg/mL INH” value [13] was 4 (×1) µg/mL. The MIC [14] was 0.5 µg/mL (≈ 1.12 µM), the MIC [15, 30] was 1 µg/mL (≈ 2.24 µM) and the MIC ([15]; read-out: MIC with 1 µg/mL EMB) was 0.5 µg/mL (≈ 1.12 µM). The MIC ([15]; read-out: MIC with 1 µg/mL INH) was 0.5 µg/mL (≈ 1.12 µM), the MIC [16, 30] was 1 µg/mL (≈ 2.24 µM) and the MIC ([16]; read-out: MIC with 1 µg/mL EMB) was 1 µg/mL (≈ 2.24 µM). For the same compound, the MIC ([16]; read-out: MIC with 1 µg/mL INH) was 1 µg/mL (≈ 2.24 µM), the “mean FICIm” value ([17]; FQ with EMB) was 0.91 and the “mean FICIm” value ([17]; FQ with INH) was 0.25. The FICIm ([17]; FQ+EMB, single replicates) was 0.75 and 1, the FICIm ([17]; FQ+INH, single replicates) was 0.25 and the “MIC of FQ with EMB” value ([17]; checkerboard (S2: with 1 µg/ml EMB)) was 0.25 µg/mL. For the same compound, the MIC [17, 31] was 0.125 µg/mL, the MIC [17, 26] was 0.0625 µg/mL and the MIC [17, 27] was 0.5 µg/mL. The “mean FICIm” value ([18]; FQ with EMB) was 0.85, the “mean FICIm” value ([18]; FQ with INH) was 0.45 and 0.46 and the FICIm ([18]; FQ+EMB, single replicates) was 1 and 0.625. For the same compound, the FICIm ([18]; FQ+INH, single replicates) was 0.5312 and 0.5 and 0.375, the “MIC of drug alone” value [18, 25] was 0.5 µg/mL and the MIC [18, 28] was 0.25 µg/mL. It also gave an MIC [19, 30] of 1 µg/mL (≈ 2.24 µM), an MIC ([19]; read-out: MIC with 1 µg/mL EMB) of 1 µg/mL (≈ 2.24 µM) and an MIC ([19]; read-out: MIC with 1 µg/mL INH) of 1 µg/mL (≈ 2.24 µM). The “mean FICIm” value ([20]; FQ with EMB) was 0.75, the “mean FICIm” value ([20]; FQ with INH) was 0.39 and the FICIm ([20]; FQ+EMB, single replicates) was 0.75. The FICIm ([20]; FQ+INH, single replicates) was 0.5 and 0.375 and 0.3125, the “FIC of FQ” value ([20]; pair with EMB) was 0.25 µg/mL and the MIC [20, 31] was 0.25 µg/mL. It also gave an MIC [20, 27] of 1 µg/mL, an MIC [21, 30] of 0.5 µg/mL (≈ 1.12 µM) and an MIC ([21]; read-out: MIC with 1 µg/mL EMB) of 0.25 µg/mL (≈ 0.559 µM). For the same compound, the MIC ([21]; read-out: MIC with 1 µg/mL INH) was 0.13 µg/mL (≈ 0.291 µM), the MIC [22] was 4 µg/mL (≈ 8.94 µM) and the “MIC with 1 µg/mL EMB” value [22] was 1 (×0.25) µg/mL. The “MIC with 1 µg/mL INH” value [22] was 1(×0.25) µg/mL, the MIC [23, 30] was 0.125 µg/mL (≈ 0.279 µM) and the MIC ([23]; read-out: MIC with 1 µg/mL EMB) was 0.13 µg/mL (≈ 0.291 µM). It also gave an MIC ([23]; read-out: MIC with 1 µg/mL INH) of 0.13 µg/mL (≈ 0.291 µM).
